{
  "source": "patent US6995159B2",
  "about": "“5-HT receptor ligands and uses thereof” (Pfizer Inc., priority 2001, dated 2006)",
  "key": {"rat 5HT2A receptor": {"biological_target": "T1, rat 5HT2A receptor (Rattus norvegicus, UniProt P14842)", "T1 construct": "expressed in transfected cells; host or cells: NIH 3T3 mouse cells", "T1 sequence (P14842 whole entry)": "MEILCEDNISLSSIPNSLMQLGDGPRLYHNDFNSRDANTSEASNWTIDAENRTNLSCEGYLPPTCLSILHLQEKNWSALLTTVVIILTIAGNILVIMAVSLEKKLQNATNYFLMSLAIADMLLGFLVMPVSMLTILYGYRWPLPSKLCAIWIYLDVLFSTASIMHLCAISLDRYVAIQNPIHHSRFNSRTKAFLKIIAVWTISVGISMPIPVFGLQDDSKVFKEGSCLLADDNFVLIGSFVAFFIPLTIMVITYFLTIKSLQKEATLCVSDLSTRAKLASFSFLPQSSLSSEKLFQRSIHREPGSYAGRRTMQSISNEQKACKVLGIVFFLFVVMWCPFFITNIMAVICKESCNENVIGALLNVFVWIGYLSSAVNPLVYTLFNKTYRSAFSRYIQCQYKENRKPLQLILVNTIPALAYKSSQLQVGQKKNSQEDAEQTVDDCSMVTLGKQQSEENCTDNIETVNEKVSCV", "test": "5HT2A binding procedure (competition binding using 125I-DOI)", "settings": "NIH 3T3 mouse cells transfected with rat 5HT2A receptor", "description": "Affinity of compounds at the serotonin 5HT2A binding site is determined by competition binding in NIH 3T3 mouse cells transfected with the rat 5HT2A receptor using 1251-DOI. The method was adapted from Leonhardt et al., Molecular Pharmacology, 42, 328–335 (1992). Frozen cell paste is homgenized in 50 mM tris-HCl buffer pH 7.4 containing 2 mM MgCl2 using a Polytron and centrifuged at 45000×g for ten minutes. The resulting pellet is resuspended in fresh ice-cold 50 mM tris-HCl buffer pH 7.4 containing 2 mM MgCl2 using a Polytron™ and centrifuged again at 45000×g for ten minutes. The final pellet is resuspended in 50 mM tris-HCl buffer pH 7.4 containing 2 mM MgCl2 at a concentration of 5 mg/mL. Wells in a 96 well plate contain 25 μL of 0.7 nM 1251-DOI (70 pM final conc.), and 25 μL of vehicle (assay buffer), blank (10 μM cinanserin), or test compound (10× final volume). […] Filter mats are removed, dried and counted in a Wallac Betaplate counter. Concentration-response curves of the % inhibition of specific binding and log concentration by test compounds was used to determine the IC50 for each compound and the Ki value calculated based on the Cheng-Prusof equation (Ki=IC50/(1+(L/Kd)), where L is the concentration of the radioligand used in the binding assay and the Kd is based on previous saturation studies with the radioligand."}, "5-HT2c receptor": {"test_system": "5-HT2c receptor", "test": "Functional assay (FLIPR calcium, Fluo 4-AM) in 5-HT2c expressed cells", "format": "cell-based", "settings": "at 10 μM; 5-HT2c expressed NIH 3T3 cells", "description": "(§1) Swiss 3T3 cells expressing r-5HT2C, r-5HT2A, h-5HT2C or h-5HT2A receptors are seeded at a density of 12,500 cells/well in 384 well black/clear collagen-coated plates. Forty eight (48) hrs later the cells are loaded with the calcium sensitive dye, Fluo 4-AM (4 μM dissolved in DMSO containing pluronic acid) in serum free DMEM in the presence of probenicid (2.5 mM) for 75 minutes at 37° C. in a CO2 incubator. Unincorporated dye is removed by washing 3 times with a HEPES-buffered saline containing probenicid (2.5 mM) using a Skatron™ cell washer (final volume 30 μL).\n(§2) Plates are added to a fluorometric imaging plate reader (FLIPR 384 available from Molecular Devices Corporation) individually and fluorescence measurements are taken every 2 seconds over an 85 seconds period. Test compound additions are made simultaneously to all 384 wells after 20 seconds of baseline recording. Concentration-response curves are generated using Graphpad Prism™ (available from GraphPad Software, Inc., San Diego, Calif.) and agonist efficacies are generated as % of the response to 10 μM 5-HT (considered as 100%). Estimation of antagonist potencies (functional Kis) are generated by measuring inhibition of the test compound response to 5-HT (10 nM for 5-HT2C and 50 nM for 5-HT2A) and applying the Cheng Prusoff equation.\nThe functional data for the compounds listed in the Examples above utilizing the 5-HT2c expressed NIH 3T3 cells is summarized below."}, "5-HT2a receptor": {"test_system": "5-HT2a receptor", "test": "Functional assay (FLIPR calcium, Fluo 4-AM) in 5-HT2a expressed cells", "format": "cell-based", "settings": "5-HT2a expressed NIH 3T3 cells", "description": "as §1, §2\nThe functional data for the compounds listed in the Examples above utilizing the 5-HT2a expressed NIH 3T3 cells is summarized below."}, "human 5HT2c receptor": {"biological_target": "T2, human 5HT2c receptor (Homo sapiens, UniProt P28335)", "T2 construct": "expressed in transfected cells; host or cells: Swiss 3T3 mouse cells", "T2 sequence (P28335 33-458)": "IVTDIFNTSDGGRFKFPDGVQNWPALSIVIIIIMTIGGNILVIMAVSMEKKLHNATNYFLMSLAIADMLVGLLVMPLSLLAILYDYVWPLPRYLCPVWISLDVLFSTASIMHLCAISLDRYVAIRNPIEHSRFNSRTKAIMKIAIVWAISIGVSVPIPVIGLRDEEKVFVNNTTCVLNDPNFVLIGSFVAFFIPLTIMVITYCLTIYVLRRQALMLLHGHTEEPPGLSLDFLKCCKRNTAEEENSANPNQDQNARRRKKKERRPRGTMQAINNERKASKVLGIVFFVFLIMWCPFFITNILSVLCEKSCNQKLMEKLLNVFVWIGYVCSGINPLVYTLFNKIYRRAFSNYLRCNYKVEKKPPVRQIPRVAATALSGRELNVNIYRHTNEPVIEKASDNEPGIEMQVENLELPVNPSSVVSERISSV", "test": "5HT2c binding procedure (competition binding against 3H-5HT)", "settings": "Swiss 3T3 mouse cells transfected with human 5HT2c receptor", "description": "Affinity of compounds at the serotonin 5HT2c binding site is determined by competition binding in Swiss 3T3 mouse cells (available from the American Type Culture Collection (ATCC), Manassas, Va.) transfected with the human 5HT2c receptor against 3H-5HT. The method is adapted from Roth et al., J. of Pharm. And Exp. Therap., 260(3), 1362–1365 (1992). Cells are grown in DMEM high glucose medium, harvested, homogenized, centrifuged, and resuspended in 50 mM Tris-HCL. They are incubated at 37° C. for 15 minutes, centrifuged, and then resuspended into assay buffer (50 mM Tris-HCl, 4 mM CaCl2, 0.1% ascorbic acid, and 100 μM pargyline at pH 7.7) at 100 volumes per gram. Assay tubes contain 25 μL of 10 nM ^3H-5HT (1 nM final conc.), and 25 μl of vehicle (assay buffer), blank (10 μM mianserin), or test compound (10X final volume). 200 μl of tissue homogenate is added to each tube, vortexed, and incubated for 30 minutes at 37° C. Samples are then rapidly filtered under vacuum with a Skatron™ cell harvester (available from Molecular Devices Corporation, Sunnyvale, Calif.) using GF/B filters presoaked in 0.5% polyethyleneimine (PEI), and washed with 2×5 mL cold 50 mM Tris-HCl. Filter mats are removed and counted in a Wallac Betaplate counter (available from PerkinElmer Life Sciences, Gaithersburg, Md.). Percent inhibition of specific binding by test compounds is used to calculate the Ki, or extrapolate concentration of test compound necessary to inhibit one-half of the total specific binding for each compound."}},
  "note": "pKi: −log10 of the molar value.",
  "data": [
    {"smiles": "C[C@@H]1CN(c2ccnc(OCc3cccc(Cl)c3)n2)C[C@H](C)N1", "note": "[Example 1-NN, 2-(3-Chloro-benzyloxy)-4-[(3R,5S)-dimethyl-piperazin-1-yl]-pyrimidine]", "values": [
      {"measurement": "5HT2a binding activity", "setting": "rat 5HT2A receptor", "result": "no binding activity"},
      {"measurement": "5-HT2c functional activity", "setting": "5-HT2c receptor", "result": "no 5-HT2c functional activity"},
      {"measurement": "5-HT2a functional activity", "setting": "5-HT2a receptor; at 10 μM", "result": "no functional activity"},
      {"measurement": "pKi", "setting": "human 5HT2c receptor", "result": "< 6.30"}
    ]},
    {"smiles": "Cl.c1ccc(COc2nccc(N3CCNCC3)n2)nc1", "note": "[Example 5-B, 4-Piperazin-1-yl-2-(pyridin-2-ylmethoxy)-pyrimidine, hydrochloride]", "values": [
      {"measurement": "functional mode at 5-HT2a (partial agonist / full antagonist)", "setting": "5-HT2a receptor", "result": "full antagonists"},
      {"measurement": "pKi", "setting": "human 5HT2c receptor", "result": "< 6.30"}
    ]},
    {"smiles": "Cc1cccc(COc2nccc(N3CCNCC3)n2)n1.Cl", "note": "[Example 5-C, 2-(6-Methyl-pyridin-2-ylmethoxy)-4-piperazin-1-yl-pyrimidine, hydrochloride]", "values": [
      {"measurement": "functional mode at 5-HT2a (partial agonist / full antagonist)", "setting": "5-HT2a receptor", "result": "full antagonists"},
      {"measurement": "pKi", "setting": "human 5HT2c receptor", "result": "< 6.30"}
    ]}
  ]
}
